Laboratory results as given in patent publication US20200316038A1, “METHODS AND COMPOSITIONS FOR TREATING UREA CYCLE DISORDERS, IN PARTICULAR OTC DEFICIENCY” (CAMP4 THERAPEUTICS CORPORATION, priority 2017, published 2020).
Where two headings read alike, the source gives them in different places.

What was measured:
CPS1 = assay: RNA-seq, CPS1 expression in compound-treated primary human hepatocytes; format: cell-based
ASL = assay: RNA-seq, ASL expression in compound-treated primary human hepatocytes; format: cell-based; conditions: RNA-seq, primary human hepatocytes, compounds that significantly increase ASL expression
ARG1 = assay: RNA-seq, ARG1 expression in compound-treated primary human hepatocytes; format: cell-based; conditions: RNA-seq, primary human hepatocytes, compounds that significantly increase ARG1 expression
[1] = system: multiple urea cycle-related genes; assay: RNA-seq, compounds that modulate multiple urea cycle-related genes; format: cell-based; conditions: primary human hepatocytes; for Up-regulated Genes: urea cycle-related genes significantly increased by the compound
SLC25A15 = assay: RNA-seq, SLC25A15 expression in compound-treated primary human hepatocytes; format: cell-based; conditions: compounds that significantly increase SLC25A15 expression
ASS1 = assay: RNA-seq, ASS1 expression in compound-treated primary human hepatocytes; format: cell-based
OTC [2] = assay: RNA-seq, OTC expression in compound-treated primary human hepatocytes; format: cell-based
OTC [3] = assay: OTC expression modulated by compounds (OTC/Geo Mean of HKs, DMSO = 1); format: cell-based, human; conditions: OTC expression; compound at 10 uM final concentration
Method: Analysis of the fold changes in expression as measured by qRT-PCR were performed using the technique below. The control was DMSO, and the treatment was the selected compound (CPD). The internal control was GAPDH or B-Actin, and the gene of interest is the target. First, the averages of the 4 conditions were calculated for normalization: DMSO:GAPDH, DMSO:Target, CPD: GAPDH, and CPD:Target. Next, the ΔCT of both control and treatment were calculated to normalize to internal control (GAPDH) using (DMSO:Target)−(DMSO:GAPDH)=ΔCT control and (CPD:Target)−(CPD: GAPDH)=ΔCT experimental. Then, the ΔΔCT was calculated by ΔCT experimental−ΔCT control.

[4] = RNA-seq, primary human hepatocytes, compounds that significantly increase NAGS expression

Row | Molecule | Fold change (Log 2) vs untreated (CPS1) | ASL expression, Fold change (Log 2) vs untreated (ASL) | ARG1 expression, Fold change (Log 2) vs untreated (ARG1) | number of urea cycle genes whose expression was significantly up-regulated [1] | Up-regulated Genes [1] | SLC25A15 expression, Fold change (Log 2) vs untreated (SLC25A15) | Fold change (Log 2) vs untreated (ASS1) | Fold change (Log 2) vs untreated (OTC [2]) | Max Value (OTC/Geo Mean of HKs; DMSO = 1) (OTC [3]) | NAGS expression, Fold change (Log 2) vs untreated (NAGS; [4]) | NAGS expression, Fold change (Log 2) vs untreated (NAGS)
1 | Cc1cc(-c2nc(-c3ccc(OC(F)(F)F)cc3)no2)nn1Cc1ccnc(N2CCN(C3CC3)CC2)c1 [BAY 87-2243] | 1.81 Log 2 | 0.58 Log 2 | 1.09 Log 2 | three | CPS1, ASL, ARG1 |  |  |  |  |  | 
2 | C[C@]12C[C@H](O)[C@H]3[C@@H](CCC4=CC(=O)CC[C@@]43C)[C@@H]1CC[C@@H]2C(=O)CO [Corticosterone] |  |  |  |  |  | 0.96 Log 2 |  |  |  |  | 
3 | C[C@]12CC[C@H]3[C@@H](CCC4=CC(=O)CC[C@@]43C)[C@@H]1CC[C@@H]2C(=O)CO [Deoxycorticosterone] | 3.79 Log 2 |  | 1.37 Log 2 | four | CPS1, ASS1, ARG1, SLC25A15 |  | 0.6 Log 2 |  |  |  | 
4 | COc1cccc2c1C(=O)c1c(O)c3c(c(O)c1C2=O)C[C@@](O)(/C(CO)=N/NC(=O)CCCCCN1C(=O)C=CC1=O)C[C@@H]3O[C@H]1C[C@H](N)[C@H](O)[C@H](C)O1 [INNO-206 (aldoxorubicin), aldoxorubicin] |  |  |  | three | NAGS, ASS1, OTC |  | 0.58 Log 2 | 0.87 Log 2 | 2.36 | 1.63 Log 2 | 
5 | NS(=O)(=O)C#Cc1ccccc1 [Pifithrin-μ] |  |  |  | three | OTC, NAGS, ARG1 |  |  | 0.79 Log 2 |  | 1.18 Log 2 | 
6 | O=C1NC(=O)/C(=C/c2cccc(C(F)(F)F)c2)S1 [SMI-4a] |  |  |  |  |  |  | 0.69 Log 2 |  |  |  | 1.25 Log 2
7 | CN(C)[C@@H]1C(O)=C(C(N)=O)C(=O)[C@@]2(O)C(O)=C3C(=O)c4c(O)c(NC(=O)CN5CCCC5)cc(F)c4C[C@H]3C[C@@H]12 [TP-434 (Eravacycline), Eravacycline] |  |  |  |  |  |  | 0.76 Log 2 |  |  | 1.5 Log 2 | 
8 | O=C1CCC(N2C(=O)c3ccccc3C2=O)C(=O)N1 (stereo not shown) [Thalidomide] | 1.02 Log 2 | 0.56 Log 2 | 1.16 Log 2 | five | NAGS, CPS1, ALS, OTC, ARG1 |  |  | 1.21 Log 2 |  |  | 1.1 Log 2
9 | COc1nc(N)nc2c1ncn2[C@@H]1O[C@H](COP(=O)(N[C@@H](C)C(=O)OCC(C)(C)C)Oc2cccc3ccccc23)[C@@H](O)[C@@]1(C)O (stereo partly shown) [bms-986094 (inx-189)] |  |  |  |  |  | 1.18 Log 2 |  |  |  |  | 
10 | C[C@]12C=CC(=O)C=C1CC[C@@H]1[C@@H]2C(=O)C[C@@]2(C)[C@H]1CC[C@]2(O)C(=O)CO [prednisone] | 2.17 Log 2 |  | 1.59 Log 2 | three | CPS1, NAGS, ARG1 |  |  |  |  | 1 Log 2 | 
11 | Activin | 2.23 Log 2 |  | 2.01 Log 2 | four | NAGS, CPS1, OTC, ARG1 |  |  | 0.94 Log 2 |  |  | 0.69 Log 2
12 | EGF: Epidermal Growth Factor; Pan-ErbB activator | 1.93 Log 2 |  | 1.46 Log 2 | three | CPS1, OTC, ARG1 |  |  | 0.64 Log 2 |  |  | 
13 | FGF: Fibroblast Growth Factor-acidic (FGF-1); FGFR activator | 1.72 Log 2 |  | 1.24 Log 2 | three | CPS1, OTC, ARG1 |  |  | 0.56 Log 2 |  |  | 
14 | HGF/SF: Hepatocyte Growth Factor, scatter factor; c-Met activator | 2.02 Log 2 |  | 1.51 Log 2 | four | NAGS, CPS1, OTC, ARG1 |  |  | 0.56 Log 2 |  |  | 0.56 Log 2
15 | PDGF | 2.12 Log 2 |  | 1.85 Log 2 | four | CPS1, OTC, ARG1, SLC25A15 | 0.71 Log 2 |  | 0.77 Log 2 |  |  | 
16 | TNF-α | 2.31 Log 2 |  | 1.87 Log 2 | four | CPS1, ASS1, OTC, ARG1 |  | 0.58 Log 2 | 0.87 Log 2 |  |  | 
17 | Nodal: 13 kDa member of the TGF-B superfamily (protein, UniProt Q96S42 238-347, looked up) Nodal homolog: HHLPDRSQLCRKVKFQVDFNLIGWGSWIIYPKQYNAYRCEGECPNPVGEEFHPTNHAYIQSLLKRYQPHRVPSTCCAPVKTKPLSMLYVDNGRVLLDHHKDMIVEECGCL | 2.44 Log 2 |  | 2.05 Log 2 | three | CPS1, OTC, ARG1 |  |  | 0.68 Log 2 |  |  | 
18 | GDF2 (BMP9): member of BMP family and the TGF-B superfamily (protein, UniProt Q9UK05 320-429, looked up) Growth/differentiation factor …: SAGAGSHCQKTSLRVNFEDIGWDSWIIAPKEYEAYECKGGCFFPLADDVTPTKHAIVQTLVHLKFPTKVGKACCVPTKLSPISVLYKDDMGVPTLKYHYEGMSVAECGCR | 3.46 Log 2 |  | 1.79 Log 2 | five |  | 1.09 Log 2 | 1.34 Log 2 |  |  |  | 0.63 Log 2
19 | Wnt3a: WNT family secreted signaling protein; FRIZZLED activator (protein, UniProt P56704 19-352, looked up) Protein Wnt-3a: SYPIWWSLAVGPQYSSLGSQPILCASIPGLVPKQLRFCRNYVEIMPSVAEGIKIGIQECQHQFRGRRWNCTTVHDSLAIFGPVLDKATRESAFVHAIASAGVAFAVTRSCAEGTAAICGCSSRHQGSPGKGWKWGGCSEDIEFGGMVSREFADARENRPDARSAMNRHNNEAGRQAIASHMHLKCKCHGLSGSCEVKTCWWSQPDFRAIGDFLKDKYDSASEMVVEKHRESRGWVETLRPRYTYFKVPTERDLVYYEASPNFCEPNPETGSFGTRDRTCNVSSHGIDGCDLLCCGRGHNARAERRREKCRCVFHWCCYVSCQECTRVYDVHTCK | 2.6 Log 2 |  | 2.07 Log 2 | four | CPS1, OTC, ARG1, SLC25A15 | 0.7 Log 2 |  | 0.92 Log 2 |  |  | 
20 | Anti mullerian hormone: member of the TGF-B gene family (protein, UniProt P03971 452-560, looked up) Muellerian-inhibiting factor: SAGATAADGPCALRELSVDLRAERSVLIPETYQANNCQGVCGWPQSDRNPRYGNHVVLLLKMQVRGAALARPPCCVPTAYAGKLLISLSEERISAHHVPNMVATECGCR | 2.35 Log 2 |  | 2.06 Log 2 | three | CPS1, OTC, ARG1 |  |  | 0.81 Log 2 |  |  | 
